Test results published in DBAASP.
Converted amounts (≈) assume the structure as drawn.

Assays:
Assay in all cases: ≥ marks a high value that may be exact or a test limit, other limits are often not marked, values filed in µg/mL are converted to µM
Pasteurella multocida = tested on: Pasteurella multocida
[1] = tested on: Staphylococcus epidermidis
Leuconostoc lactis = tested on: Leuconostoc lactis
Escherichia coli = tested on: Escherichia coli
Listeria innocua = tested on: Listeria innocua
Bacillus cereus = tested on: Bacillus cereus
Staphylococcus aureus = tested on: Staphylococcus aureus
Streptococcus uberis = tested on: Streptococcus uberis
Micrococcus luteus = tested on: Micrococcus luteus
[2] = tested on: Staphylococcus aureus ATCC 29213
Acinetobacter baumannii = tested on: Acinetobacter baumannii
[3] = tested on: Staphylococcus aureus ATCC 25923
Escherichia coli UB1005 = tested on: Escherichia coli UB1005
Pseudomonas aeruginosa = tested on: Pseudomonas aeruginosa
[4] = tested on: Staphylococcus epidermidis ATCC 12228
[5] = tested on: Escherichia coli ATCC 25922
[6] = tested on: Salmonella enterica subsp. enterica serovar Typhimurium C77-31
Streptococcus mutans = tested on: Streptococcus mutans
[7] = tested on: Candida albicans ATCC 90028
[8] = tested on: Staphylococcus aureus NCTC 8325
[9] = tested on: Escherichia coli ATCC 25726

SMILES | MIC (Pasteurella multocida) | MIC [1] | MIC (Leuconostoc lactis) | MIC (Escherichia coli) | MIC (Listeria innocua) | MIC (Bacillus cereus) | MIC (Staphylococcus aureus) | MIC (Streptococcus uberis) | MIC [3] | MIC (Streptococcus mutans) | other results
CC(C)C[C@H](NC(=O)[C@H](Cc1c[nH]c2ccccc12)NC(=O)[C@H](CCCCN)NC(=O)[C@H](CC(C)C)NC(=O)[C@H](Cc1ccccc1)NC(=O)[C@@H](NC(=O)[C@H](CCCCN)NC(=O)[C@@H](N)Cc1ccccc1)[C@@H](C)O)C(=O)N[C@@H](Cc1cnc[nH]1)C(=O)N[C@@H](CCCN=C(N)N)C(=O)N[C@@H](Cc1ccccc1)C(N)=O [FKTFLKWLHRF] |  |  |  |  |  |  |  |  |  | 15.8 µM (≈ 24 µg/mL) | 
CC[C@H](C)[C@H](NC(=O)[C@H](Cc1ccccc1)NC(=O)[C@H](CCCCN)NC(=O)[C@@H](NC(=O)[C@H](Cc1ccccc1)NC(=O)[C@H](CCC(N)=O)NC(=O)[C@H](CCCCN)NC(=O)[C@@H](N)CC(C)C)C(C)C)C(=O)N[C@@H](Cc1cnc[nH]1)C(=O)N[C@@H](CCCN=C(N)N)C(=O)N[C@@H](Cc1ccccc1)C(N)=O [LKQFVKFIHRF] |  |  |  |  |  |  |  |  |  | 16.4 µM (≈ 24 µg/mL) | 
CC(C)C[C@H](NC(=O)[C@H](CCCN=C(N)N)NC(=O)[C@H](Cc1c[nH]c2ccccc12)NC(=O)[C@H](CCCN=C(N)N)NC(=O)[C@H](CC(C)C)NC(=O)[C@H](CCCN=C(N)N)NC(=O)[C@H](Cc1c[nH]c2ccccc12)NC(=O)[C@H](CCCN=C(N)N)NC(=O)[C@H](CC(C)C)NC(=O)[C@H](CCCN=C(N)N)NC(=O)[C@@H](N)Cc1c[nH]c2ccccc12)C(=O)N[C@@H](CCCN=C(N)N)C(N)=O [WRLRWRLRWRLR] |  |  |  | 2 µM (≈ 3.7 µg/mL) |  |  | 1 µM (≈ 1.85 µg/mL) |  | 2 µM (≈ 3.7 µg/mL) |  | MIC [2]: 1 µM (≈ 1.85 µg/mL); MIC (Acinetobacter baumannii): 2.83 µM (≈ 5.24 µg/mL); MIC (Escherichia coli UB1005): 2 µM (≈ 3.7 µg/mL); MIC (Pseudomonas aeruginosa): 4 µM (≈ 7.41 µg/mL); MIC [4]: 2 µM (≈ 3.7 µg/mL); MIC [5]: 4 µM (≈ 7.41 µg/mL); MIC [6]: 2 µM (≈ 3.7 µg/mL)
CC[C@H](C)[C@H](NC(=O)[C@H](CCCN=C(N)N)NC(=O)[C@H](CCCCN)NC(=O)[C@H](CC(C)C)NC(=O)[C@H](C)NC(=O)[C@@H](N)CCCN=C(N)N)C(=O)N[C@@H](CCCCN)C(=O)N[C@@H](Cc1cnc[nH]1)C(=O)N[C@H](C(=O)N[C@@H](CC(C)C)C(=O)N[C@@H](CCCCN)C(=O)O)C(C)C [RALKRIKHVLK] |  |  |  |  |  |  |  |  |  | ≥ 91.8 µM | 
CC(C)C[C@H](NC(=O)[C@H](Cc1cnc[nH]1)NC(=O)[C@H](CCC(N)=O)NC(=O)[C@H](Cc1ccccc1)NC(=O)[C@H](CCC(=O)O)NC(=O)[C@@H](NC(=O)[C@H](CC(C)C)NC(=O)[C@H](CC(C)C)NC(=O)[C@@H](N)Cc1ccc(O)cc1)[C@@H](C)O)C(=O)N[C@@H](Cc1ccccc1)C(=O)N[C@@H](CCCCN)C(=O)O [YLLTEFQHLFK] |  |  |  |  |  |  |  |  |  | ≥ 86.9 µM | 
CC(C)C[C@H](NC(=O)[C@H](CCCN=C(N)N)NC(=O)[C@H](Cc1c[nH]c2ccccc12)NC(=O)[C@H](CCCN=C(N)N)NC(=O)[C@@H](NC(=O)[C@H](CCCCN)NC(=O)[C@H](Cc1c[nH]c2ccccc12)NC(=O)[C@H](CCCN=C(N)N)NC(=O)[C@H](CC(C)C)NC(=O)[C@H](CCCN=C(N)N)NC(=O)[C@@H](N)Cc1c[nH]c2ccccc12)[C@@H](C)O)C(=O)N[C@@H](CCCCN)C(N)=O [WRLRWKTRWRLK] |  |  |  | 2.83 µM (≈ 5.05 µg/mL) |  |  | 2 µM (≈ 3.57 µg/mL) |  | 2 µM (≈ 3.57 µg/mL) |  | MIC (Acinetobacter baumannii): 4 µM (≈ 7.14 µg/mL); MIC (Escherichia coli UB1005): 2 µM (≈ 3.57 µg/mL); MIC (Pseudomonas aeruginosa): 8 µM (≈ 14.3 µg/mL); MIC [4]: 4 µM (≈ 7.14 µg/mL); MIC [6]: 2 µM (≈ 3.57 µg/mL)

Further lines, with some results ahead:

MIC (Pasteurella multocida) | MIC [1] | MIC (Leuconostoc lactis) | MIC (Escherichia coli) | MIC (Listeria innocua) | MIC (Bacillus cereus) | MIC (Staphylococcus aureus) | MIC (Streptococcus uberis) | MIC [3] | MIC (Streptococcus mutans) | SMILES | other results
≥ 39.5 µM | ≥ 39.5 µM | 9.87 µM (≈ 25 µg/mL) | > 39.5 µM | ≥ 39.5 µM | ≥ 39.5 µM | > 39.5 µM | ≥ 39.5 µM |  |  | CC[C@H](C)[C@H](NC(=O)[C@@H](NC(=O)[C@H](C)NC(=O)[C@@H](NC(=O)[C@@H](NC(=O)[C@H](Cc1cnc[nH]1)NC(=O)[C@H](C)NC(=O)[C@H](CC(C)C)NC(=O)[C@@H](NC(=O)[C@H](Cc1cnc[nH]1)NC(=O)[C@H](CCCCN)NC(=O)[C@H](C)NC(=O)[C@@H](NC(=O)[C@H](CO)NC(=O)CNC(=O)[C@H](CC(C)C)NC(=O)[C@@H](NC(=O)[C@H](CO)NC(=O)[C@H](CC(C)C)NC(=O)[C@H](CC(C)C)NC(=O)CN)C(C)C)C(C)C)C(C)C)C(C)C)C(C)C)C(C)C)C(=O)N[C@@H](C)C(=O)N[C@@H](CCC(=O)O)C(=O)N[C@@H](Cc1cnc[nH]1)C(=O)N[C@@H](CC(C)C)C(N)=O [GLLSVLGSVAKHVLAHVVAVIAEHL] | MIC (Micrococcus luteus): ≥ 39.5 µM
≥ 55.2 µM | 6.62 µM (≈ 12 µg/mL) | 3.31 µM (≈ 6 µg/mL) | 55.2 µM (≈ 99.9 µg/mL) | 13.8 µM (≈ 25 µg/mL) | 27.6 µM (≈ 50 µg/mL) | 27.6 µM (≈ 50 µg/mL) | 27.6 µM (≈ 50 µg/mL) |  |  | CC[C@H](C)[C@H](NC(=O)[C@@H](NC(=O)[C@H](CCCCN)NC(=O)[C@H](C)NC(=O)[C@@H](NC(=O)[C@H](CCCCN)NC(=O)[C@H](CCCCN)NC(=O)[C@@H](NC(=O)[C@@H](NC(=O)[C@H](CCCCN)NC(=O)[C@H](Cc1ccccc1)NC(=O)[C@H](CC(C)C)NC(=O)CN)C(C)C)[C@@H](C)CC)C(C)C)C(C)C)C(=O)N[C@@H](CCCCN)C(=O)N[C@@H](CCCCN)C(=O)N[C@@H](CC(C)C)C(N)=O [GLFKVIKKVAKVIKKL] | MIC (Micrococcus luteus): 13.8 µM (≈ 25 µg/mL)
≥ 56.1 µM | 7.02 µM (≈ 12.5 µg/mL) | 1.68 µM (≈ 3 µg/mL) | > 56.1 µM | 14 µM (≈ 25 µg/mL) | 14 µM (≈ 25 µg/mL) | 28.1 µM (≈ 50 µg/mL) | 7.02 µM (≈ 12.5 µg/mL) |  |  | CC[C@H](C)[C@H](NC(=O)[C@H](CC(C)C)NC(=O)[C@H](CC(=O)O)NC(=O)CNC(=O)[C@@H](NC(=O)CN)C(C)C)C(=O)N[C@@H](CCCN=C(N)N)C(=O)N[C@@H](CCCCN)C(=O)N[C@@H](C)C(=O)N[C@H](C(=O)N[C@@H](CO)C(=O)N[C@H](C(=O)N[C@H](C(=O)N[C@@H](CCCCN)C(=O)N[C@@H](CC(N)=O)C(=O)N[C@H](C(=O)N[C@H](C(N)=O)C(C)C)[C@@H](C)CC)[C@@H](C)CC)C(C)C)C(C)C [GVGDLIRKAVSVIKNIV] | 
 |  |  | 2 µM (≈ 3.37 µg/mL) |  |  | 2 µM (≈ 3.37 µg/mL) |  | 2 µM (≈ 3.37 µg/mL) |  | CC(C)C[C@H](NC(=O)[C@H](CCCCN)NC(=O)[C@H](Cc1c[nH]c2ccccc12)NC(=O)[C@H](CCCCN)NC(=O)[C@H](CC(C)C)NC(=O)[C@H](CCCCN)NC(=O)[C@H](Cc1c[nH]c2ccccc12)NC(=O)[C@H](CCCCN)NC(=O)[C@H](CC(C)C)NC(=O)[C@H](CCCCN)NC(=O)[C@@H](N)Cc1c[nH]c2ccccc12)C(=O)N[C@@H](CCCCN)C(N)=O [WKLKWKLKWKLK] | MIC [2]: 2 µM (≈ 3.37 µg/mL); MIC (Acinetobacter baumannii): 2.83 µM (≈ 4.76 µg/mL); MIC (Escherichia coli UB1005): 4 µM (≈ 6.74 µg/mL); MIC (Pseudomonas aeruginosa): 4 µM (≈ 6.74 µg/mL); MIC [4]: 2 µM (≈ 3.37 µg/mL); MIC [5]: 4 µM (≈ 6.74 µg/mL); MIC [6]: 2 µM (≈ 3.37 µg/mL)
≥ 56.5 µM | ≥ 56.5 µM | 6.78 µM (≈ 12 µg/mL) | > 56.5 µM | ≥ 56.5 µM | ≥ 56.5 µM | > 56.5 µM | 28.2 µM (≈ 50 µg/mL) |  |  | CC[C@H](C)[C@H](NC(=O)[C@@H](NC(=O)CN)C(C)C)C(=O)N[C@@H](CC(=O)O)C(=O)N[C@@H](C)C(=O)N[C@@H](C)C(=O)N[C@@H](CCCCN)C(=O)N[C@@H](CCCCN)C(=O)N[C@H](C(=O)N[C@H](C(=O)N[C@@H](CC(N)=O)C(=O)N[C@H](C(=O)N[C@@H](CC(C)C)C(=O)N[C@@H](C)C(=O)N[C@@H](CC(N)=O)C(=O)N[C@@H](CC(C)C)C(=O)N[C@@H](Cc1ccccc1)C(N)=O)C(C)C)C(C)C)C(C)C [GVIDAAKKVVNVLANLF] | MIC (Micrococcus luteus): ≥ 56.5 µM
 |  |  |  |  |  |  |  | 50 µM (≈ 164 µg/mL) |  | CC[C@H](C)[C@H](NC(=O)CN)C(=O)N[C@@H](CC(C)C)C(=O)N[C@@H](CC(=O)O)C(=O)N[C@@H](CO)C(=O)N[C@@H](Cc1ccccc1)C(=O)N[C@@H](CCCCN)C(=O)NCC(=O)N[C@H](C(=O)N[C@@H](C)C(=O)N[C@@H](CCCCN)C(=O)NCC(=O)N[C@H](C(=O)N[C@@H](C)C(=O)N[C@@H](CCCCN)C(=O)N[C@@H](CC(=O)O)C(=O)N[C@@H](CC(C)C)C(=O)N[C@@H](C)C(=O)NCC(=O)N[C@@H](CCCCN)C(=O)N[C@@H](CC(C)C)C(=O)N[C@@H](CC(C)C)C(=O)N[C@@H](CC(=O)O)C(=O)N[C@@H](CCCCN)C(=O)N[C@@H](CC(C)C)C(=O)N[C@@H](CCCCN)C(=O)N[C@H]1CSSC[C@@H](C(=O)O)NC(=O)CNC(=O)[C@H]([C@@H](C)O)NC(=O)[C@H]([C@@H](C)CC)NC(=O)[C@H](CCCCN)NC1=O)C(C)C)C(C)C [GILDSFKGVAKGVAKDLAGKLLDKLKCKITGC] | MIC [7]: ≥ 150 µM; MIC [8]: 11 µM (≈ 36.2 µg/mL); MIC [9]: 25 µM (≈ 82.2 µg/mL); MIC [5]: 4 µM (≈ 13.2 µg/mL)
